Values of other authors, collected in patent US20090269770A1, “METHODS FOR EVALUATION PROGNOSIS AND FOLLOW-UP OF DRUG TREATMENT OF PSYCHIATRIC DISEASES OR DISORDERS” (priority 2008, published 2009).

Test system: negative symptoms of schizophrenia
Details: non-serotonergic antidepressant add-on (Silver and Shmugliakov, 1998); cited from earlier work

CNCCCC12CCC(c3ccccc31)c1ccccc12 [maprotaline]
effect on negative symptoms: did not improve negative symptoms
